Reference: US4447611A, “Benzo-fused and heterocyclic fused imidazole anti-ulcer agents” (American Home Products Corporation, priority 1982, dated 1984)

Experiments:
H2 histamine receptors = target: T1, H2 histamine receptors (Cavia porcellus, UniProt P47747); test: guinea pig heart atrium test (histamine-induced positive chronotropic response in spontaneously beating right atrium); type: cell-based; conditions: 32° C., pH 7.4, 30 minutes after addition of compound, vs histamine dose-response
T1 construct: from tissue; host or cells: guinea pig right atrium (isolated, spontaneously beating)
T1 sequence (P47747 whole entry): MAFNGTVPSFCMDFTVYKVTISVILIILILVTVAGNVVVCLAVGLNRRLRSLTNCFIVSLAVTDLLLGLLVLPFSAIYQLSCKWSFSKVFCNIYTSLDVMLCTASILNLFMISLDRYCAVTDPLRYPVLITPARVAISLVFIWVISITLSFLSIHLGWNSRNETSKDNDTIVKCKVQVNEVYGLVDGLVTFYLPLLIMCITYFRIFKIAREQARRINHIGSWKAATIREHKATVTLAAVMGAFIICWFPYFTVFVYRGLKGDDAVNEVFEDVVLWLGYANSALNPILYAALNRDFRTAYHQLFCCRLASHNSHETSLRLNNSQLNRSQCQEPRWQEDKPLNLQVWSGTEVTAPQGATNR
Method: The guinea pig heart atrium test is carried out as follows:
The tissue is allowed to stabilize over 1 hour. Individual contractions are recorded with a force-displacement transducer through a strain gauge coupler. A control dose-response curve to histamine in the above described tissue bath is obtained after which the tissue is washed 3 times and allowed to re-equilibrate to basal rate. The test compound is added to the tissue bath at the desired final concentration. Thirty minutes after addition of the compound, a fresh histamine dose response curve is again obtained. Then the response to histamine in the presence of antagonist is compared to the histamine control response. This procedure is repeated, using fresh tissues, for each concentration of antagonist tested.

rat gastric secretion = test: gastric secretion in the pylorus-ligated rat (modified Shay procedure); type: in vivo; conditions: 32 mg/kg, interduodenally (i.d.), four hours after ligation, male Charles River rats
Method: The procedures for the results of these tests are presented at the end of the following examples, which will serve to illustrate the present invention.
The procedure for testing gastric secretion in the rat, a modification of the procedure of Shay et al., Gastroenterology, 26, 906-13 (1954) is carried out as follows:
Male Charles River rats weighing 200-300 grams are deprived of food but not water for 24 hours prior to use. Water is, however, withheld during the experiment. The rats are weighed, anesthetized, and the pylorus ligated according to the method of Shay et al. Treatment or vehicle control is then administered interduodenally (i.d.). Rats are housed 2/cage and sacrificed with CO2 four hours after ligation. The stomachs are removed, rinsed, and contents emptied into a graduated centrifuge tube. The tubes are centrifuged for 20 minutes at 2,000 RPM and the volume of gastric juice recorded. Any samples obviously contamined by feces, food or hemolysis are eliminated. An aliquot of each is frozen for later analysis of Na^+, K^+ and Cl^- concentration. The pH is measured and 1 ml. of gastric juice is titrated with 0.1 N NaOH to a pH of 7.0-7.4 Titratable acid output is calculated in microequivalents and the percent inhibition of acid output is calculated as follows: [formula]

[1] = cited from earlier work

Structure (SMILES) | pA2 Value (apparent dissociation constant of the H2 antagonist) (H2 histamine receptors) | % Inhibition (of acid output) (rat gastric secretion) | confusional states (in words) ([1]; elderly patients) | anti-androgenic activity (in words) ([1]; patients) | duration of action (in words) ([1]; patients)
c1cc(CN2CCCCC2)cc(OCCCNc2nc3ccccc3[nH]2)c1 [A, 2-[3-[3-[(1-piperidinylmethyl)]phenoxy]propylamine]benzimidazole] | 7.1 | 65% |  |  | 
CN/C(=N/CCSCc1nc[nH]c1C)NC#N [Cimetidine] |  |  | a tendency to cause confusional states in elderly patients | anti-androgenic activity | short duration of action
